This note sets out measurements from US8481523B2, “Biocide composition comprising pyrithione and pyrrole derivatives” (Arch Chemicals, Inc., priority 2006, dated 2013).

Entries after “also recorded” stand apart in the source; their conditions may differ.

The test relates to barnacles. The test is described as follows: Paint efficacy testing: coated fiberglass rods suspended in the ocean, number of barnacles counted monthly. The class given is in vivo. The following applies: paint formulations on rods in the ocean, Beaufort, N.C. coast, 2004. As to the method:
A series of nine paint formulations containing 4-bromo-2-(4-chlorophenyl)-5-(trifluoromethyl)-1H-pyrrole-3-carbonitrile (referred to in below table as Pyrrole) and zinc pyrithione (ZPT) were tested by Duke University off the Beaufort, N.C. coast in 2004 for their antifouling effectiveness against barnacles and other fouling organisms. The formulations were created in the laboratory by the addition of various amounts of biocides to a resin base-formulation (vinyl resin/wood rosin with Zn oxide filler). Formulations include 4-bromo-2-(4-chlorophenyl)-5-(trifluoromethyl)-1H-pyrrole-3-carbonitrile alone and in combination with ZPT. A solvent based zinc oxide coating was used as a control. Unprimed fiberglass rods (8 mm diameter×11 cm length) were dip-coated with each formulation (5 rods/formulation) and suspended from a test rack in the ocean (one-meter below the surface). Rods were evaluated each month for number of barnacles and bryozoans. The most promising results came from the formulations in which 4-bromo-2-(4-chlorophenyl)-5-(trifluoromethyl)-1H-pyrrole-3-carbonitrile was blended with ZPT (See Table 1 below).

For `N#Cc1c(-c2ccc(Cl)cc2)[nH]c(C(F)(F)F)c1Br` [4-bromo-2-(4-chlorophenyl)-5-(trifluoromethyl)-1H-pyrrole-3-carbonitrile], the “antifouling effectiveness against barnacles and other fouling organisms (in words)” value is “effective antifouling agent for hard fouling organisms such as barnacles; also recorded: performs better with ZPT as a co-biocide than it does alone”.
